Reference: US11648290B2, “Cartilage-homing peptides” (FRED HUTCHINSON CANCER CENTER, priority 2015, dated 2023)

How the values were obtained:
[1] = test system: cartilage (IVD, knee / synovial joints); test: Whole body autoradiography (WBA) of radiolabeled cartilage homing peptides (Example 21); type: in vivo, Female Harlan athymic nude mice
Procedure: This example illustrates peptide homing to cartilage mice 5 minutes to 48 hours after administration of a radiolabeled peptide. Signal from the radiolabeled peptides was found in all types of cartilage at each time point examined. Each peptide was radiolabeled by methylating […] as described in EXAMPLE 2. As such, the peptide may contain methyl or dimethyl lysines and a methylated or dimethylated amino terminus. A dose of 100 nmol radiolabeled peptide was administered via tail vein injection in Female Harlan athymic nude mice, weighing 20-25 g. The experiment was done in duplicate (n=2 animals per group). In some animals, kidneys were ligated to prevent renal filtration of the radiolabeled peptides and extend plasma half-life. Each radiolabeled peptide was allowed to freely circulate within the animal for the described time period before the animals were euthanized and sectioned.
Whole body autoradiography (WBA) sagittal sectioning was performed as follows. […] Sections were allowed to desiccate in a freezer prior to imaging.
For the autoradiography imaging, tape mounted thin sections were freeze dried and radioactive samples were exposed to phophoimager plates for 7 days.

[2] = biological target: pepsin (Homo sapiens, UniProt P0DJD8); test: Peptide resistance to pepsin digestion / simulated gastric fluid (RP-HPLC); type: in vitro ADME; settings: 12.5 ug peptide, 20 ug pepsin, SGF pH 1.05, 30 minutes at 37.5 C
Procedure: SEQ ID NO: 24 peptide and SEQ ID NO: 111 peptide were suspended in 500 μl of ddH2O at a stock concentration of 2 mg/ml. Reactions were prepared with 12.5 μg peptide and 20 μg pepsin in simulated gastric fluid (pH 1.05) and incubated for 30 minutes at 37.5° C. Reactions were quenched with a final concentration of 100 mM Tris base and 10 mM dithiothreitol (DTT). Reversed phase HPLC (RP-HPLC) was run on samples using an Agilent 1260 HPLC equipped with a C-18 Poroshell 120B column. Sample were analyzed by a gradient method with a mobile phase of Solvent A (water with 0.1% TFA) and Solvent B (acetonitrile with 0.1% TFA). Solvent B was ramped up from 5%-45% of the mobile phase over a period of 10 minutes. Peptides were detected at an absorbance of 214 nm and 280 nm.

[3] = Peptide resistance to reducing agents (10 mM DTT, RP-HPLC); type: physicochemical; settings: 10 mM DTT in PBS, room temperature, 30 minutes
Procedure: Several peptides were suspended in 500 μl of ddH2O to a stock concentration of 2 mg/ml. Reactions were prepared by adding 12.5 μg peptide from the stock solution to a 10 mM solution of DTT in PBS and allowed to incubate at room temperature for 30 minutes. RP-HPLC was run on samples using an Agilent 1260 HPLC equipped with a C-18 Poroshell 120B column. Samples were analyzed by a gradient method with a mobile phase of Solvent A (water with 0.1% TFA) and Solvent B (acetonitrile with 0.1% TFA). Solvent B was ramped up from 5%-45% of the mobile phase over a period of 10 minutes.
Peptides were fractionated by HPLC and without any further sample prep, 5 μl of the sample was injected into the mass spectrometer at 1 mg/ml using a CTCPAL® autosampler. Alternatively, if peptides were provided as a lyophilized powder, the sample was dissolved in 100% water to a concentration of 1 mg/ml a Millipore Ziptip C18® column was used to desalt the peptides prior to injection for ES-MS. The mass spectrometer was calibrated using 5 pmol of mixture of five standard peptides to achieve a high accuracy of mass determination with less than a 10 ppm error. Confirmation of peptide disulfide bond formation was achieved by analyzing the m/z isotopic distribution and the exact charge. All peptides tested are shown under reducing and non-reducing conditions.

[4] = Intravenous and oral administration of radiolabeled peptide: plasma, urine, feces; type: in vivo, female Harlan athymic nude mice
Procedure: This example describes intravenous and oral administration of peptides of this disclosure, including transit of the intact peptide through the GI tract and to the feces after oral administration. A radiolabeled peptide of SEQ ID NO: 24 was administered intravenously or orally to female Harlan athymic nude mice, 6-8 weeks of age. Radiolabeled peptides of SEQ ID NO: 24 was administered intravenously (IV) at a dose of 4.8 μCi/20 nmol. Radiolabeled peptide of SEQ ID NO: 24 was administered orally (PO) at a dose of 24 μCi/100 nmol. Mice were euthanized at various time points by CO2 asphyxiation and biological fluids were collected, including blood, urine, and feces. Urine was collected be abdominal palpitation immediately before CO2 asphyxiation. Blood was collected by cardiac puncture immediately after CO2 asphyxiation and centrifuged to separate plasma. Feces was collected either before or after CO2 asphyxiation by palpitation of the colon. Samples were analyzed by HPLC to quantify the concentration or dose of intact peptide recovered in plasma, urine, and feces. For HPLC analysis, urine samples were first diluted at a 1:20 ratio in water and plasma samples were diluted at a 1:5 ratio in water. Feces samples were dissolved in Tris buffer, centrifuged to remove the insoluble fraction, and supernatants were diluted at a 1:1 ratio in water.
The delivered dose of ^14C was 4.8 for intravenous administration and 24 μCi for oral administration. Time points examined included 0.08, 0.5, 1, 3, 8, 24, 48 hours and three mice were examined per time point. […] The delivered dose of ^14C was 4.8 for intravenous administration and 24 μCi for oral administration. Time points examined included 0.08, 0.5, 1, 3, 8, 24, 48 hours and three mice were examined per time point. […] The delivered dose of ^14C was 24 μCi for oral administration. Time points examined included 0.5, 1, and 3 hours. […] The intact peptide was eluted near 6 minutes, whereas cleaved fragments—such as the N-terminal Gly residue—were eluted near 1 minute.
(§1) The delivered dose of ^14C was 4.8 μCi for intravenous administration and 24 μCi for oral administration. Time points examined included 0.08, 0.5, 1, 3, 8, 24, 48 hours and three mice were examined per time point. […] The delivered dose of ^14C was 24 μCi for oral administration. Time points examined included 0.5, 1, 3, 8, 24, and 48 hours.
as §1, with “included 3” for “included 0.5, 1, 3, 8, 24,”, “and 8” for “and 48”

[5] = test system: cartilage; settings: 3 hours, ligated kidneys
Procedure: This example describes a dosing scheme for administering knottin peptides to mice in conjunction with kidney ligation. Different dosages of the peptides were administered to Female Harlan athymic nude mice, weighing 20 g-25 g, via tail vein injection (n=2 mice per knottin). The experiment was done in duplicates. The kidneys were ligated to prevent renal filtration of the peptides. Each peptide was radiolabeled by methylating lysines and the N-terminus, so the actual binding agent may contain methyl or dimethyl lysine(s) and a methylated or dimethylated amino terminus.
A target dosage of 50-100 nmol of each peptide carrying 10-25 uCi of ^14C was administered to Female Harlan athymic nude mice while anesthetized. Each peptide was allowed to freely circulate within the animal before the animals were euthanized and sectioned.
This example illustrates peptide homing to cartilage of mice with kidneys that were ligated prior to peptide administration. At the end of the dosing period in EXAMPLE 3, mice were frozen in a hexane/dry ice bath and then frozen in a block of carboxymethylcellulose. […] Thin, frozen sections of animal including imaging of tissues such as brain, tumor, liver, kidney, lung, heart, spleen, pancreas, muscle, adipose, gall bladder, upper gastrointestinal tract, lower gastrointestinal tract, bone, bone marrow, reproductive track, eye, cartilage, stomach, skin, spinal cord, bladder, salivary gland, and other types of tissues were obtained with a microtome, allowed to desiccate in a freezer, and exposed to phosphoimager plates for about ten days.
These plates were developed, and the signal (densitometry) from each organ was normalized to the signal found in the heart blood of each animal. A signal in tissue darker than the signal expected from blood in that tissue indicates peptide accumulation in a region, tissue, structure or cell. For instance, the cartilage is avascular and contains minute amounts of blood. A ratio of at least 170% signal in the cartilage versus heart ventricle was chosen as a reference level for significant targeting to cartilage, which also correlated with clear accumulation in cartilaginous tissues in the images of the slices.
The SEQ ID NO: 24 peptide was radiolabeled as in Example 3 and 100 nmol of peptide was injected into a mouse with intact kidneys. FIG. 5 illustrates the retention of and the tissue distribution in the cartilage of a peptide of SEQ ID NO: 24, 24 hours after administration.

[6] = test system: pepsin, trypsin; test: HPLC after exposure to oxidative, reductive, acidic conditions and proteinases (FIG. 72); type: in vitro ADME; settings: pH 1 / SGF pH 1.05, 10 mM DTT, 500 U pepsin, 50 U trypsin
Procedure: FIG. 72 illustrates HPLC chromatograms of peptides of SEQ ID NO: 111 and SEQ ID NO: 434 after exposure to a range of conditions including oxidative, reductive, and acidic conditions as well as after exposure to proteinases. FIG. 72A illustrates the HPLC trace of a peptide of SEQ ID NO: 111 under reducing and acidic conditions. FIG. 72B illustrates the HPLC trace of a peptide of SEQ ID NO: 111 under various combinations of reducing agents and proteases including 10 mM DTT in 500 U pepsin, 500 U pepsin, 10 mM DTT in 50 U trypsin, and 50 U trypsin. FIG. 72C illustrates the HPLC trace of a peptide of SEQ ID NO: 434 under various protease conditions including in 500 U pepsin, in 50 U trypsin, non-reducing (NR, oxidized conditions) in simulated gastric fluid (SGF) at pH 1.05, and NR.
FIG. 72 illustrates HPLC chromatograms of peptides of SEQ ID NO: 111 and SEQ ID NO: 434 after exposure to a range of conditions including oxidative, reductive, and acidic conditions as well as after exposure to proteinases. The peptide of SEQ ID NO: 434 is a linearized version of the knottin peptide of SEQ ID NO: 111. The peptide of SEQ ID NO: 434 has the same amino acid sequence as the knottin peptide of SEQ ID NO: 111, but with all cysteines mutated to serines. FIG. 72A illustrates the HPLC trace of a peptide of SEQ ID NO: 111 under reducing and acidic conditions. […]

[7] = 3 hours after 100 nmol radiolabeled peptide
[8] = 24 hours after 100 nmol radiolabeled peptide
[9] = 0.08 hours after 100 nmol radiolabeled peptide
[10] = 0.5 hours after 100 nmol radiolabeled peptide
[11] = 1 hour after 100 nmol radiolabeled peptide
[12] = 8 hours after 100 nmol radiolabeled peptide
[13] = 48 hours after 100 nmol radiolabeled peptide

pepsin, sequence (P0DJD8 63-388): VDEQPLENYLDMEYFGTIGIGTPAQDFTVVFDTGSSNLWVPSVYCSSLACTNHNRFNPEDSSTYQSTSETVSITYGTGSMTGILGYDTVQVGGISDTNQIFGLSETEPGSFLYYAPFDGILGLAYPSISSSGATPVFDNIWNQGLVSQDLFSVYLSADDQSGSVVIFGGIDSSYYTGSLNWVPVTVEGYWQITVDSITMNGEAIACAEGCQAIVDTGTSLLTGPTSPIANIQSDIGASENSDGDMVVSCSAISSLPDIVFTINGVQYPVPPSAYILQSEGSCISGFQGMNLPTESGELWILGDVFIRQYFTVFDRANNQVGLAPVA

With “GSGVPINVKCRGSRDCLDPCKKAGMRFGKCINSKCHCTP [SEQ ID NO: 24]” the “Signal in IVD as a percentage of the blood” value [1, 7] was 1779%, the “Signal in IVD as a percentage of the blood” value [1, 8] was 833% and the “Resistance to degradation in DTT, SGF, SGF and pepsin, SPTD solutions” value [2] was “highly resistant to degradation”. For the same sequence, the “HPLC peaks under non-reducing versus reducing conditions (resistance to reduction by DTT)” value [3] was “Peaks showing the peptide under non-reducing conditions and reducing conditions are overlapping”, the “Detection of radioactive signal from the dosed peptide in plasma” value ([4]; IV 20 nmol / PO 100 nmol) was “at least 50 hours” and the “Plasma concentration as percent of the dose” value ([4]; IV administration, 20 nmol) was “up to 10 % of the dose”. For the same sequence, the “Plasma concentration as percent of the dose” value ([4]; PO administration, 100 nmol) was “up to 1 % of the dose”, the “Intact peptide in feces” value ([4]; oral dosing 100 nmol, 3 and 8 hours) was “detected in feces after oral dosing” and the “Nature of radioactivity detected in plasma (HPLC / scintillation)” value ([4]; oral gavage 100 nmol, 0.5, 1, 3 hours) was “nearly some of all of the radioactivity detected in plasma was due to fragments of the administered peptide”. The “Cartilage types reached (FIGS. 3-4)” value [5] was “homing of SEQ ID NO: 24 to hyaline cartilage such as articular cartilage and physeal cartilage, as well as fibrocartilage”.
With “GSGVPINVRCRGSRDCLDPCRRAGMRFGRCINSRCHCTP [SEQ ID NO: 111]” the “Time at which the signal to background ratio in IVD peaked” value ([1]; 100 nmol) was 24 h, the “Time at which the signal to background ratio in knee joints peaked” value ([1]; 100 nmol) was 8 h and the “Presence of radiolabeled peptide in IVD and synovial joints” value ([1]; 100 nmol, 5 minutes-48 hours) was “observed in the intervertebral disc (IVD) and synovial joints at all time points (5 minutes-48 hours)”. For the same sequence, the “Signal in IVD as a percentage of the blood” value [1, 9] was 164%, the “Signal in knee joints as a percentage of the blood” value [1, 9] was 404% and the “Signal in IVD as a percentage of the blood” value [1, 10] was 369%. The “Signal in knee joints as a percentage of the blood” value [1, 10] was 510%, the “Signal in IVD as a percentage of the blood” value [1, 11] was 961% and the “Signal in knee joints as a percentage of the blood” value [1, 11] was 1114%. The “Signal in IVD as a percentage of the blood” value [1, 7] was 3213%, the “Signal in knee joints as a percentage of the blood” value [1, 7] was 4059% and the “Signal in IVD as a percentage of the blood” value [1, 12] was 3777%. The “Signal in knee joints as a percentage of the blood” value [1, 12] was 4990%, the “Signal in IVD as a percentage of the blood” value [1, 8] was 5391% and the “Signal in knee joints as a percentage of the blood” value [1, 8] was 2137%. For the same sequence, the “Signal in IVD as a percentage of the blood” value [1, 13] was 3320%, the “Signal in knee joints as a percentage of the blood” value [1, 13] was 843% and the “Signal of folded knotted peptide compared to linearized peptide of SEQ ID NO: 434” value ([1]; IVD, 3 hours) was ~20 fold. For the same sequence, the “Resistance to degradation in DTT, SGF, SGF and pepsin, SPTD solutions” value [2] was “similarly highly resistant in the various conditions tested”, the “HPLC peaks under non-reducing versus reducing conditions (resistance to reduction by DTT)” value [3] was “Peaks showing the peptide under non-reducing conditions and reducing conditions are fully overlapping” and the “Resistance to degradation (FIG. 72)” value [6] was “highly resistant to degradation at pH 1, reducing agents, trypsin, and pepsin”.
For “GSGVPINVRSRGSRDSLDPSRRAGMRGRSINSRSHSTP [SEQ ID NO: 434, reference compound]”, the “Cartilage homing (qualitative, WBA)” value ([1]; 100 nmol radiolabeled peptide) was “homed to cartilage to a much lesser extent than the folded knotted peptide”, the “Signal in IVD as a percentage of signal in blood” value ([1]; 3 hr Intact Kidneys, 100 nmol) was 177% and the “Signal in IVD as a percentage of signal in blood” value ([1]; 3 hr Ligated Kidneys, 100 nmol) was 117%. The “Signal in IVD as a percentage of signal in blood” value ([1]; 24 hr Intact Kidneys, 100 nmol) was 104% and the “Resistance to degradation (FIG. 72)” value [6] was “more susceptible to degradation at these different conditions”.
